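In this assay, cells in 96-well plates receive the compound at five concentrations for 48 hours. Endpoints are linearly interpolated between the surrounding concentrations. GI50 marks 50% less growth.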 Calls of active or inactive are those of the source. No stated cut-off is given here; in the data, active = GI50 up to about 1.1 µM and inactive = higher.
How the values were obtained:
Experiment in all cases: NCI anticancer screen, dose series, 48 h
MOLT-4 = tested on: MOLT-4
ACHN = tested on: ACHN
UO-31 = tested on: UO-31
Hs-578T = tested on: Hs-578T
MDA-N = tested on: MDA-N
KM12 = tested on: KM12
NCI-H460 = tested on: NCI-H460
OVCAR-5 = tested on: OVCAR-5
SF-539 = tested on: SF-539
DU-145 = tested on: DU-145
MDA-MB-231 = tested on: MDA-MB-231
SF-268 = tested on: SF-268
HT-29 = tested on: HT-29
SN12C = tested on: SN12C
NCI-H23 = tested on: NCI-H23
HOP-92 = tested on: HOP-92
786-0 = tested on: 786-0
MCF7 = tested on: MCF7
SK-MEL-2 = tested on: SK-MEL-2
SW-620 = tested on: SW-620

SMILES	GI50 (MOLT-4)	GI50 (ACHN)	GI50 (UO-31)	GI50 (Hs-578T)	GI50 (MDA-N)	GI50 (KM12)	GI50 (NCI-H460)	GI50 (OVCAR-5)	GI50 (SF-539)	GI50 (DU-145)	GI50 (MDA-MB-231)	GI50 (SF-268)	GI50 (HT-29)	GI50 (SN12C)	GI50 (NCI-H23)	GI50 (HOP-92)	GI50 (786-0)	GI50 (MCF7)	GI50 (SK-MEL-2)	GI50 (SW-620)
CS(=O)(=O)Nc1ccc(Nc2c3ccccc3nc3ccccc23)cc1	0.0873 µM (active)	0.381 µM (active)	2.23 µM (inactive)	6.43 µM (inactive)	5.94 µM (inactive)	3.13 µM (inactive)	0.112 µM (active)	4.39 µM (inactive)	3.4 µM (inactive)	0.355 µM (active)	3.56 µM (inactive)	2.78 µM (inactive)	4.4 µM (inactive)	0.714 µM (active)	4.06 µM (inactive)	4.78 µM (inactive)	3.1 µM (inactive)	1.07 µM (active)	5.16 µM (inactive)	1.11 µM (active)
C=C1CC2(OC1=O)c1ccccc1CCc1ccccc12	2.43 µM (inactive)	1.71 µM (inactive)	9.82 µM (inactive)	1.94 µM (inactive)	1.8 µM (inactive)	3.61 µM (inactive)	12.5 µM (inactive)	14.5 µM (inactive)	2.13 µM (inactive)	18.7 µM (inactive)	9.27 µM (inactive)	1.93 µM (inactive)	1.84 µM (inactive)	2.52 µM (inactive)	9.95 µM (inactive)	1.72 µM (inactive)	1.75 µM (inactive)	4.59 µM (inactive)	5.62 µM (inactive)	1.59 µM (inactive)
N#Cc1c(-c2ccc([N+](=O)[O-])cc2)cc(-c2ccc(Nc3ccnc4cc(Cl)ccc34)cc2)nc1N	1.81 µM (inactive)	30.5 µM (inactive)	26.5 µM (inactive)	11.6 µM (inactive)	3.52 µM (inactive)	2.38 µM (inactive)	7.24 µM (inactive)	30.8 µM (inactive)	31.1 µM (inactive)	11 µM (inactive)	16.9 µM (inactive)	14.9 µM (inactive)	2.71 µM (inactive)	4.81 µM (inactive)	25.2 µM (inactive)	29.7 µM (inactive)	0.989 µM (active)	1.61 µM (inactive)	14.7 µM (inactive)	> 21.7 µM (inactive)
C=CC(C)(C)n1cc(C2=C3OC(=O)C(c4cn(C(C)(C)C=C)c5ccccc45)=C3OC2=O)c2ccccc21	> 100 µM (inactive)	> 100 µM (inactive)	> 100 µM (inactive)	> 10 µM (inactive)	> 100 µM (inactive)	> 100 µM (inactive)	> 100 µM (inactive)	> 100 µM (inactive)	> 100 µM (inactive)	> 100 µM (inactive)	> 100 µM (inactive)	> 100 µM (inactive)	> 100 µM (inactive)	> 100 µM (inactive)	> 100 µM (inactive)	> 100 µM (inactive)	> 100 µM (inactive)	> 100 µM (inactive)	> 100 µM (inactive)	> 100 µM (inactive)
C/C(=N\O)c1ccc(OCc2cc(C(F)(F)F)cc(C(F)(F)F)c2)cc1	14.3 µM (inactive)	25.5 µM (inactive)	> 100 µM (inactive)	37.8 µM (inactive)	37.2 µM (inactive)	19.3 µM (inactive)	23.4 µM (inactive)	> 100 µM (inactive)	60.5 µM (inactive)	> 100 µM (inactive)	> 100 µM (inactive)	43.2 µM (inactive)	20.1 µM (inactive)	46.2 µM (inactive)	95.3 µM (inactive)	17.6 µM (inactive)	41.2 µM (inactive)	20 µM (inactive)	57.1 µM (inactive)	32 µM (inactive)
NC(=O)C(Nc1ccc(Cl)cc1)c1cc2cc(Br)ccc2nc1Cl (stereo not given)	19.5 µM (inactive)	> 50 µM (inactive)	> 50 µM (inactive)	> 50 µM (inactive)	43.7 µM (inactive)	> 50 µM (inactive)	> 50 µM (inactive)	> 50 µM (inactive)	18.5 µM (inactive)	> 50 µM (inactive)	> 50 µM (inactive)	> 50 µM (inactive)	> 50 µM (inactive)	> 50 µM (inactive)	> 50 µM (inactive)	17.7 µM (inactive)	> 50 µM (inactive)	40.8 µM (inactive)	> 50 µM (inactive)	34.8 µM (inactive)
COc1ccc(C2c3cc4c(cc3OC(NNc3ccccc3)C2C)OCO4)cc1 (stereo not given)	3.15 µM (inactive)	1.93 µM (inactive)	4.33 µM (inactive)	16.1 µM (inactive)	8.71 µM (inactive)	2.91 µM (inactive)	3.57 µM (inactive)	7.33 µM (inactive)	2.36 µM (inactive)	5.52 µM (inactive)	23.2 µM (inactive)	20.3 µM (inactive)	11.6 µM (inactive)	11 µM (inactive)	13.4 µM (inactive)	19.5 µM (inactive)	22.1 µM (inactive)	4.04 µM (inactive)	21.7 µM (inactive)	21.7 µM (inactive)
Cc1c2ccccc2c(C2C3C(=O)N(c4cccc5ccccc45)C(=O)C3ON2Cc2ccc(CC(N)=O)cc2)c2ccccc12 (stereo not given)	8.24 µM (inactive)	18.5 µM (inactive)	24.7 µM (inactive)	27.6 µM (inactive)	11.5 µM (inactive)	18.2 µM (inactive)	13.5 µM (inactive)	24.9 µM (inactive)	12 µM (inactive)	18.9 µM (inactive)	23.3 µM (inactive)	23.6 µM (inactive)	10.2 µM (inactive)	15.3 µM (inactive)	25.1 µM (inactive)	15.6 µM (inactive)	24.4 µM (inactive)	14.8 µM (inactive)	10.8 µM (inactive)	20.3 µM (inactive)
c1ccc2c(c1)N=c1ccccc1=P21c2ccccc2Nc2ccccc21	0.3 µM (active)	2.4 µM (inactive)	7.1 µM (inactive)	0.382 µM (active)	0.379 µM (active)	0.132 µM (active)	0.186 µM (active)	0.421 µM (active)	0.619 µM (active)	0.388 µM (active)	2.69 µM (inactive)	0.614 µM (active)	0.0724 µM (active)	1.5 µM (inactive)	0.304 µM (active)	0.332 µM (active)	1.03 µM (active)	0.457 µM (active)	0.256 µM (active)	0.405 µM (active)
Cc1cc(=O)oc2c(C)c(O)ccc12	89.1 µM (inactive)	> 100 µM (inactive)	22.4 µM (inactive)	> 100 µM (inactive)	> 100 µM (inactive)	> 100 µM (inactive)	> 100 µM (inactive)	> 100 µM (inactive)	> 100 µM (inactive)	> 100 µM (inactive)	> 100 µM (inactive)	> 100 µM (inactive)	> 100 µM (inactive)	> 100 µM (inactive)	> 100 µM (inactive)	> 100 µM (inactive)	> 100 µM (inactive)	> 100 µM (inactive)	> 100 µM (inactive)	> 100 µM (inactive)

Source: ChEMBL document CHEMBL1201862, “PubChem BioAssay data set” (2004)
